In article PMC10070635, “Targeting Enterococcus faecalis HMG-CoA reductase with a non-statin inhibitor” (Communications Biology, 2023):

Key:
[1] = biological target: T1, Enterococcus faecalis HMG-CoA reductase (efHMGR) (Enterococcus faecalis, UniProt A0A4U3MLJ4); assay: X-ray co-crystal structure ([…] Å); type: binding
T1 construct: gene EY666_03235; C-terminal domain (residues 381-803) of the mvaE gene product, N-terminal 6X-His tag

[2] = biological target: T1, Enterococcus faecalis HMG-CoA reductase (efHMGR); assay: X-ray co-crystal structure ([…] Å); mevalonate oxidation enzyme assay with Ki (IC50 […]); type: biochemical
[3] = biological target: T1, Enterococcus faecalis HMG-CoA reductase (efHMGR); assay: X-ray crystal structure ([…] Å); type: binding
[4] = biological target: T1, Enterococcus faecalis HMG-CoA reductase (efHMGR); assay: mevalonate oxidation assay, NADPH absorbance at […] nm; […] inhibition at […]; type: biochemical

SMILES: NC(=O)c1ccc[n+]([C@@H]2O[C@H](COP(=O)(O)OP(=O)(O)OC[C@H]3O[C@@H](n4cnc5c(N)ncnc54)[C@H](OP(=O)(O)O)[C@@H]3O)[C@@H](O)[C@H]2O)c1 [NADP+]
- X-ray co-crystal structure (2.27 Å) [1]: NADP^+ is present in all the active sites and HMG-CoA in only one

SMILES: CCCCc1ccc(NS(=O)(=O)c2ccc(O)c(C(=O)O)c2)cc1 [compound 315, 5-{[(4-butylphenyl)amino]sulfonyl}-2-hydroxybenzoic acid]
- Ki [2]: 2000 nM

SMILES: CC(C)(COP(=O)(O)OP(=O)(O)OC[C@H]1O[C@@H](n2cnc3c(N)ncnc32)[C@H](O)[C@@H]1OP(=O)(O)O)[C@@H](O)C(=O)NCCC(=O)NCCSC(=O)C[C@@](C)(O)CC(=O)O [HMG-CoA]
- X-ray co-crystal structure (2.27 Å) [1]: HMG-CoA binds to the large domain of one monomer and NADP^+ to small domain of the other monomer

SMILES: C[C@@](O)(CCO)CC(=O)O [mevalonate]
- X-ray crystal structure (2.27 Å) [3]: Density consistent with mevalonate is also found in one of the active sites.

SMILES: CC[C@H](C)C(=O)O[C@H]1C[C@@H](C)C=C2C=C[C@H](C)[C@H](CC[C@@H]3C[C@@H](O)CC(=O)O3)[C@H]21 [lovastatin]
- inhibition at 50 µM [4]: 32%
